In experiment [1] the test system is partially purified cabbage PLD. The experiment in a line: Partially purified cabbage PLD activity assay (PEOH release from PC). The following applies: for Effect of components of the LPE molecule on PLD activity: FIG. 2; for Effect of different lysophospholipids on PLD activity: FIG. 5.
The test system of another experiment is tomato leaves. The experiment in a line: Retardation of ethephon-induced leaf senescence in tomato plants. Type of experiment: in vivo, Tomato plants cv. H9144. The following applies: ethephon 1000 mg/L ± lysophospholipid 50 mg/L spray; 10 to 14 days after treatment; Mean ± SE. On the procedure: Ethephon, also known as Ethrel, (Ethrel is a trademark of Rhone-Poulenc Ag. Co. (Research Triangle Park, N.C.)) is an aqueous formulation that decomposes to ethylene and is used widely to maximize the yield of ripe tomato fruits in once-over harvesting operations. […] Tomato plants cv. H9144 were grown in a greenhouse for two and a half months to serve as sources of leaf samples. Plant were sprayed to runoff with ethephon at 1000 mg/L or with ethephon plus lysophospholipid mixtures as shown below in Table 6. Lysophospholipid solutions at 50 mg/L were prepared in 1% (v/v) ethanol and mixed with ethephon (1000 mg/L). Control plans were sprayed with ethephon alone in 1% (v/v) ethanol. Senescence of treated leaves was quantified 10 to 14 days after treatment by measuring chlorophyll and protein content.

The next experiment has as its system cranberry fruits. The experiment in a line: Ethylene production of postharvest cranberry fruits after LPE dip. Type of experiment: in vivo, Vaccinium macrocarpon Ait. 'Stevens'. The settings on record: for Ethylene production, Relative %: 100 μM, control = 100. As to the method:
However, the impact of different acyl chains of LPE on fruit senescence has not been investigated. In the present study, complementary to the effect of different acyl chains of LPE on PLD activity, the inventors investigated the effect of different acyl chains of LPE on ethylene production of cranberry fruits. Fully ripened cranberry fruits (Vaccinium macrocarpon Ait. 'Stevens') were harvested during the fall season and kept in a cold room. […] After two days, berries were incubated in a sealed glass jar for 24 hours in order to measure ethylene production. Ethylene was quantified with a gas chromatograph equipped with a flame ionization detector (Shinadzu 9AM, Shimadzu Corporation, Kyoto, Japan) (3).

Experiment [2] concerns snapdragon flowering spikes. Kind of experiment: Vase life and senescence of cut snapdragon spikes. The settings on record: for Spikes with Wilted Flower Florets after 7 days (% of total): 24 hr; for Spikes with Wilted Flower Florets after 7 days (% of total) / Water Content of Leaf after 18 days (Fresh wt/Dry wt): Mean ± SE; for Water Content of Leaf after 18 days (Fresh wt/Dry wt): control 5.79 ± 0.18; for Vase Life of Spikes (Days when > 50% of spikes remained marketable): control 4; for Leaf water content of spikes: 18 days after treatment; for spikes wilted after 7 days of treatment: range over tested concentrations, control 76%.

A further experiment has as its system soluble cabbage PLD. Kind of experiment: Soluble PLD activity, cabbage leaf extract (radio-labeled PC). Type of experiment: biochemical, cabbage (Brassica oleracea L. Blue Vintage).
A further experiment concerns tomato plants/fruits. The experiment in a line: Enhancement of tomato fruit ripening and stability by preharvest spray. The format is in vivo, Tomato plants cv. H9478. The settings on record: 100 mg/L spray 10 days before harvest; for At Harvest, Partial Red fruits (weight % of total): control 13.2; for At Harvest, Green fruits (weight % of total): control 33.2; for 3 Weeks After Harvest, Soft Fruits (non marketable) (weight % of total): control 47.8; for At Harvest, Red fruits (weight % of total): control 53.6. As to the method: This experiment was conducted to compare the effects of […] (18:1) and LPI on fruit ripening. Tomato plants cv. […] were grown in pots for two and one-half months under fluorescent lights. […] All solutions contained 1% ethol and 0.05% […] 309 (Dow Corning Co., Midland, Mich.) as activating agents. Control plants received distilled water containing 1% ethanol and 0.05% […] 309. Fruits were harvested 10 days after treatment and graded into green, partial red, and red (indicating full ripening). […] (see Table 7).

Experiment [3] concerns membrane-associated castor bean PLD.
In another experiment the test system is tomato fruits. The experiment in a line: Retardation of senescence of harvested mature green tomato fruits. The format is in vivo, Lycopersicon esculentum cv. H9144. The following applies: for Ethylene Production after 7 days / Rotten fruits after 3 weeks (% of total): 100 mg/L in 1% ethanol, 20 min dip; for Ethylene Production after 7 days: control 1.26 ± 0.21, Mean ± SE; for Rotten fruits after 3 weeks (% of total): control 37.2; for ethylene production relative to control: 7 days after treatment. As to the method: Mature green fruits of tomato (Lycopersicon esculentum cv. […]) were harvested from three month old plants. […] The control tomatoes were dipped in distilled water containing 1% ethol. After dipping, the fruits were stored at room temperature for 3 weeks. Production of ethylene gas was measured 7 days after treatment.

Experiment [4] has as its system membrane-associated cabbage PLD. Kind of experiment: Membrane-associated PLD activity, cabbage leaf extract. Type of experiment: biochemical, cabbage (Brassica oleracea L. Blue Vintage).
Experiment [5] concerns carnation flowering spikes. The experiment in a line: Vase life of cut carnation flowers. The following applies: 25 mg/L; control 27.5 ± 3.3; Mean ± SE.
The test system of another experiment is senescing leaves. The experiment in a line: Leaf chlorophyll content after eight day senescence. Type of experiment: in vivo. The following applies: after eight day senescence (FIG. 6). On the procedure:
To evaluate the relative efficacy of various species of lysophospholipids in delaying senescence in leaves, treatment solutions containing lysophosphatidic acid (LPA), lysophosphatidylcholine (LPC),LPE, LPI, or water were applied to leaves. The chlorophyll content of each sample was measured by standard methods (10) after an eight day senescence. The relative chlorophyll contents were expressed as the percentage of the control.

[6] abbreviates: 200 μM, PC substrate (FIG. 1, 2, 5).

On to `CCCCCCCC/C=C\CCCCCCCC(=O)O` [18:1 fatty acid], for which the “Effect of components of the LPE molecule on PLD activity” value in experiment [1] was “no inhibitory effect”.
In the case of `O=P(O)(O)CCCl` [Ethephon (E), ethephon], in the experiment with tomato leaves, the “Chlorophyll Content” value is on record as 3.65 ± 0.25 mg/g dry wt and the “Protein Content” value was 58.8 ± 14.7 mg/g dry wt.
Regarding `CCCCCCCCCCCCCCCC(=O)OCC(O)COP(=O)(O)OCCN` (stereo not shown) [LPE16:0], the “Ethylene production, Relative %” value with cranberry fruits is given as 92.7%.
With `CCCCCCCCCCCCCCCCCC(=O)OCC(O)COP(=O)(O)OCCN` (stereo not shown) [LPE18:0], the “Ethylene production, Relative %” value in the experiment on cranberry fruits is 71.3%.
Regarding `CCCCCCCCCCCCCC(=O)OCC(O)COP(=O)(O)OCCN` (stereo not shown) [LPE 14:0], the “Ethylene production, Relative %” value in the experiment on cranberry fruits amounted to 100.0%. Also, the “Effect on PLD activity” value in experiment [1] (40 and 200 μM, LPE with different acyl chains (FIG. 1)) is listed as “very little effect”.
In the case of `CCCCCCCC/C=C\CCCCCCCC(=O)OCC(O)COP(=O)(O)OCCN` (stereo not shown) [LPE (18:1), lysophosphatidylethanolamine (18:1)], the “Spikes with Wilted Flower Florets after 7 days (% of total)” value in experiment [2] (5 mg/L, control 75.5 ± 10.3) is reported as 34.5 ± 5.5 % of total. The “Water Content of Leaf after 18 days (Fresh wt/Dry wt)” value in [2] (5 mg/L) came out at 7.81 ± 0.22 Fresh wt/Dry wt. In experiment [2] (10 mg/L), the “Spikes with Wilted Flower Florets after 7 days (% of total)” value is 30.0 ± 5.5 % of total and the “Vase Life of Spikes (Days when > 50% of spikes remained marketable)” value worked out at 12 days. In addition, the “Spikes with Wilted Flower Florets after 7 days (% of total)” value in experiment [2] (25 mg/L) was 38.7 ± 8.5 % of total. Besides, in [2], the “Leaf water content of spikes” value was “higher than that of LPEegg and water-treated spikes”; the “spikes wilted after 7 days of treatment” value was 30-39%. For the same molecule, the “Ratio (LPE/Control), Soluble PLD, Cabbage” value with soluble cabbage PLD (200 μM) is recorded as 0.51. Also, the “Soluble PLD activity, Cabbage” value with soluble cabbage PLD (200 μM, control 45.2 ± 3.5, mean ±SE) came to 23.1 ± 1.6 nmol min^−1 mg^−1 protein. Besides, the “Specific activity of soluble cabbage PLD, % of the control” value in the experiment on soluble cabbage PLD (in the presence of LPE (18:1)) was 51%. In addition, in the experiment on tomato plants/fruits, the “At Harvest, Partial Red fruits (weight % of total)” value is 11.7 weight % of total; the “At Harvest, Green fruits (weight % of total)” value is recorded as 22.9 weight % of total; the “3 Weeks After Harvest, Soft Fruits (non marketable) (weight % of total)” value is given as 33.0 weight % of total; the “At Harvest, Red fruits (weight % of total)” value was 65.4 weight % of total. Further, in the experiment on cranberry fruits, the “Ethylene production, Relative %” value is recorded as 59.6%. The “decrease in ethylene production” value in the experiment on cranberry fruits (2 days after treatment) is reported as 40%. In addition, in experiment [1] (10 μM (FIG. 3)), the “PLD activity, % of the control” value turned out to be 50%. The “PLD activity, % of the control” value in experiment [1] (40 μM, PC substrate (FIG. 1)) was 16%. Also, the “PLD activity, % of the control” value in experiment [1] (setting [6]) is listed as 11%. Further, in [1] (in the presence of LPE (18:1), control Vmax 20.0), the Vmax was 2.9 μmol min^−1 mg^−1 protein. Also, in [1] (read-out: apparent Km for PLD, in the presence of LPE, substrate PC (FIG. 4)), the Km – broadly, the concentration of substrate that gives half-maximal velocity – was 1700 µM. In experiment [1] (substrate concentration varied (FIG. 4)), the “Type of PLD inhibition” value is reported as “non-competitive inhibition”. The “Soluble castor bean PLD activity, % of the control” value with soluble castor bean PLD is given as 30%. For the same molecule, in the experiment on soluble castor bean PLD (200 μM), the “Ratio (LPE/Control), Soluble PLD, Castor Bean” value is on record as 0.30 and the “Soluble PLD activity, Castor Bean” value stood at 3.1 ± 0.1 nmol min^−1 mg^−1 protein. For the same molecule, the “Membrane-associated castor bean PLD activity, % of the control” value in experiment [3] is 31%. Further, in [3] (200 μM), the “Membrane-associated PLD activity, Castor Bean” value is given as 47.0 ± 3.6 nmol min^−1 mg^−1 protein and the “Ratio (LPE/Control), Membrane-associated PLD, Castor Bean” value was determined as 0.31. Besides, in the experiment on tomato fruits, the “Ethylene Production after 7 days” value was 0.70 ± 0.20 nl/g. hr^1, the “Rotten fruits after 3 weeks (% of total)” value is reported as 7.7 % of total and the “ethylene production relative to control” value is given as “about half of the control”. Moreover, in experiment [4] (200 μM), the “Ratio (LPE/Control), Membrane-associated PLD, Cabbage” value came out at 0.59. Also, the “Membrane-associated PLD activity, Cabbage” value in experiment [4] (200 μM, control 368.8 ± 6.5, mean ±SE) is on record as 217.0 ± 13.0 nmol min^−1 mg^−1 protein. Moreover, the “Specific activity of membrane-associated cabbage PLD, % of the control” value in experiment [4] (in the presence of LPE (18:1)) stood at 59%. The “Marketable Flowers after 6 days of treatment (% of total)” value in experiment [5] was 41.7 ± 8.3 % of total.
Take `NCCO` [ethanolamine]: the “Effect of components of the LPE molecule on PLD activity” value in [1] is “no inhibitory effect”.
As for Lysophosphatidylcholine [LPC], the “Effect of different lysophospholipids on PLD activity” value (“Effect of different lysophospholipids” below) in experiment [1] was “did not significantly affect”.
Consider lysophosphatidic acid [LPA], for which the “PLD activity, % of the control” value in [1] (setting [6]) was 169%. Also, the “Effect of different lysophospholipids” value in [1] is recorded as “significantly increased PLD activity”.
Take lysophosphatidylglycerol [LPG]: in experiment [1], the “Effect of different lysophospholipids” value is given as “did not significantly affect”.
Take lysophosphatidylinositol [LPI]: the “Spikes with Wilted Flower Florets after 7 days (% of total)” value in [2] (5 mg/L, control 75.5 ± 10.3) is on record as 21.6 ± 7.0 % of total. Also, in [2] (5 mg/L), the “Water Content of Leaf after 18 days (Fresh wt/Dry wt)” value is recorded as 7.57 ± 0.52 Fresh wt/Dry wt. Besides, in experiment [2] (10 mg/L), the “Spikes with Wilted Flower Florets after 7 days (% of total)” value was 15.0 ± 11.5 % of total and the “Vase Life of Spikes (Days when > 50% of spikes remained marketable)” value is 13 days. Moreover, in experiment [2] (25 mg/L), the “Spikes with Wilted Flower Florets after 7 days (% of total)” value is recorded as 17.8 ± 7.5 % of total. In experiment [2], the “Leaf water content of spikes” value was “higher than that of LPEegg and water-treated spikes”; the “spikes wilted after 7 days of treatment” value is 15-22%. In the experiment with tomato plants/fruits, the “At Harvest, Partial Red fruits (weight % of total)” value is recorded as 11.7 weight % of total; the “At Harvest, Green fruits (weight % of total)” value is 18.3 weight % of total; the “3 Weeks After Harvest, Soft Fruits (non marketable) (weight % of total)” value is 25.6 weight % of total; the “At Harvest, Red fruits (weight % of total)” value is 70.1 weight % of total. Also, the “chlorophyll content of senescing leaves” value in the experiment on senescing leaves is listed as “much higher than leaves treated with LPA, LPC or LPEegg”. Moreover, the “PLD activity, % of the control” value in experiment [1] (setting [6]) was 31%. Further, the “Effect of different lysophospholipids” value in [1] is “inhibitory effects somewhat similar to those of LPE”. Further, in the experiment with tomato fruits, the “Ethylene Production after 7 days” value was 0.71 ± 0.40 nl/g. hr^1, the “Rotten fruits after 3 weeks (% of total)” value is 17.5 % of total and the “ethylene production relative to control” value is reported as “about half of the control”. In experiment [5], the “Marketable Flowers after 6 days of treatment (% of total)” value is 44.2 ± 8.3 % of total.
As to lysophosphatidylserine [LPS], in experiment [1], the “Effect of different lysophospholipids” value is recorded as “did not significantly affect”.
Turning to phosphatidylethanolamine [PE], in [1] (setting [6]), the “PLD activity, % of the control” value was found to be 126%.

These data come from patent US6426105B1, “Use of lysophosphatidylethanolamine (18.1) and lysophosphatidylinositol to retard senescence and to enhance fruit ripening” (Wisconsin Alumni Research Foundation, priority 1997, dated 2002).
